Among the data in US20140187548A1, “6 SUBSTITUTED IMIDAZOPYRAZINES FOR USE AS MPS-1 AND TKK INHIBITORS IN THE TREATMENT OF HYPERPROLIFERATIVE DISORDERS” (BAYER INTELLECTUAL PROPERTY GMBH, priority 2010, published 2014) are IC50 values, retold here.

Molecules are shown by their SMILES.

This assay deals with T1, human kinase Mps-1 (Homo sapiens, UniProt P33981).
T1 construct: N-terminally GST-tagged human full length recombinant Mps-1 kinase; GST (N); purchased Invitrogen, Karslruhe, Germany PV4071
T1 sequence (P33981 1-857): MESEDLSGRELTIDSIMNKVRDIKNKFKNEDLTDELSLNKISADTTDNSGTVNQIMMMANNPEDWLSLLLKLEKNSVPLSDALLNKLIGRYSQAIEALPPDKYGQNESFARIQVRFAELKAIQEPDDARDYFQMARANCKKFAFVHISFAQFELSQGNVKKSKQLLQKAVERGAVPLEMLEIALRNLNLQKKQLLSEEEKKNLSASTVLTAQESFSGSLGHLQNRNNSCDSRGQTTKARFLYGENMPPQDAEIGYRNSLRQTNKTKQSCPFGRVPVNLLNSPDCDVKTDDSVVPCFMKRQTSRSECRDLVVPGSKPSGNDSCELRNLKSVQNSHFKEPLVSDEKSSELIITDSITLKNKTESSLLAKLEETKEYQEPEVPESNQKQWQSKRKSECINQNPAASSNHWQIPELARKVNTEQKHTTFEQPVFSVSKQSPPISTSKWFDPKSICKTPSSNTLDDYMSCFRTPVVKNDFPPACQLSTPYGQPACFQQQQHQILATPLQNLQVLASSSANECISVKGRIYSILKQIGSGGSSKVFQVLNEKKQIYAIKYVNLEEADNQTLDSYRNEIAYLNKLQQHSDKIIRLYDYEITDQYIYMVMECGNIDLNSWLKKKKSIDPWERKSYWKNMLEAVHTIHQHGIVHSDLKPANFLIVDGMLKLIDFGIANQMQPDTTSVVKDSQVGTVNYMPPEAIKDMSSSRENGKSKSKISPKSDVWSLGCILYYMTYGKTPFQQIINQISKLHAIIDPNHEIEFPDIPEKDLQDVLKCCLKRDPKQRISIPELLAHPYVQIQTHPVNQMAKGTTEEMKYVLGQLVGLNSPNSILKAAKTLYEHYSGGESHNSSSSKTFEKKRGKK
Nature of the assay: Mps-1 kinase assay (TR-FRET). It counts as biochemical. To be noted: N-terminally GST-tagged human full length recombinant Mps-1; 10 μM ATP; 1 μM peptide substrate; 15 min pre-incubation; 60 min at 22° C. The gist of the method: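 TR-FRET read-out: after 1 h binding at 22° C, Eu-labelled anti-phospho-Ser/Thr antibody transfers to SA-XLent on the phosphorylated biotinylated peptide. The enzyme is GST-tagged full-length human Mps-1, typically about 1 nM final, in the linear range.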
Regarding `O=C(NC1CC1)c1ccc(-c2cnc3c(NCCc4nccs4)nc(-c4ccccc4)cn23)cc1` [Example 2-63, N-cyclopropyl-4-(6-phenyl-8-{[2-(1,3-thiazol-2-yl)ethyl]amino}imidazo[1,2-a]pyrazin-3-yl)benzamide], the IC50 (commonly the concentration that gives 50% inhibition) came out at 5.6 nM.

With `CC(C)(O)CNc1nc(-c2ccc(F)cc2)cn2c(-c3ccc(C(=O)NC4CC4)cc3)cnc12` [Example 1-131, N-cyclopropyl-4-{6-(4-fluorophenyl)-8-[(2-hydroxy-2-methylpropyl)amino]imidazo[1,2-a]pyrazin-3-yl}benzamide], the IC50 is 1.6 nM.

Consider `CC(C)CNc1nc(-c2cccc(C(=O)NCc3ccccc3)c2)cn2c(-c3ccc(C(=O)NC4CC4)cc3)cnc12` [Example 1-55, N-benzyl-3-{3-[4-(cyclo-propylcarbamoyl)phenyl]-8-[(2-methylpropyl)amino]imidazo[1,2-a]pyrazin-6-yl}benzamide], for which the IC50 was 4.6 nM.

With `CCN1CCC(CNc2nc(-c3ccc(F)cc3)cn3c(-c4ccc(C(=O)NC5CC5)c(C)c4)cnc23)C1` (stereo not drawn) [Example 10-9, N-cyclopropyl-4-[8-{[(1-ethylpyrrolidin-3-yl)methyl]amino}-6-(4-fluorophenyl)imidazo [1,2-a]pyrazin-3-yl]-2-methylbenzamide], the half-maximal inhibitory concentration (IC50) is 63.4 nM.

Regarding `CC(C)CNc1nc(-c2ccc(C(N)=O)cc2)cn2c(-c3ccc(C(=O)NC4CC4)cc3)cnc12` [Example 1-24, 4-{6-(4-carbamoylphenyl)-8-[(2-methylpropyl)amino]imidazo[1,2-a]pyrazin-3-yl}-N-cyclo-propylbenzamide], the IC50 was 1.1 nM.

For the compound `Cc1cc(-c2cnc3c(NCC4CC(=O)N(C)C4)nc(-c4ccc(F)cc4)cn23)ccc1C(=O)NC1CC1` (stereo not drawn) [Example 10-13, N-cyclopropyl-4-[6-(4-fluorophenyl)-8-{[(1-methyl-5-oxopyrrolidin-3-yl)methyl]amino}imidazo[1,2-a]pyrazin-3-yl]-2-methylbenzamide], the IC50 came to 7.2 nM.

As to `CCOC(C)CNc1nc(-c2ccccc2)cn2c(-c3ccc(C(=O)NC4CC4)cc3)cnc12` (stereo not drawn) [Example 2-57, N-cyclopropyl-4-{8-[(2-ethoxypropyl)amino]-6-phenylimidazo[1,2-a]pyrazin-3-yl}benzamide], the IC50 was 2.3 nM.

As to `O=C(NC1CC1)c1ccc(-c2cnc3c(NCC4CCCO4)nc(-c4ccccc4CO)cn23)cc1Cl` (stereo not drawn) [Example 1-106, 2-chloro-N-cyclopropyl-4-{6-[2-(hydroxymethyl)phenyl]-8-[(tetrahydro-furan-2-ylmethyl)amino]imidazo[1,2-a]pyrazin-3-yl}benzamide], the IC50 stood at 56.2 nM.

Consider `CC(C)CNc1nc(-c2ccc(C(C)O)cc2)cn2c(-c3ccc(C(=O)NC4CC4)cc3)cnc12` (racemic) [Example 6-2, (RS)N-cyclopropyl-4-{6-[4-(1-hydroxyethyl)phenyl]-8-(isobutylamino)imidazo[1,2-a]pyrazin-3-yl}benzamide], for which the IC50 was 1.1 nM.

With `CC(C)(O)CNc1nc(-c2ccn[nH]2)cn2c(-c3ccc(C(=O)NC4CC4)c(Cl)c3)cnc12` [Example 1-101, 2-chloro-N-cyclopropyl-4-{8-[(2-hydroxy-2-methyl-propyl)amino]-6-(1H-pyrazol-5-yl)imidazo [1,2-a]pyrazin-3-yl} benzamide], the half-maximal inhibitory concentration (IC50) came to 91.3 nM.

With `CN(C)c1ccc(-c2cn3c(-c4ccc(C(=O)NC5CC5)c(F)c4)cnc3c(NCCC(F)(F)F)n2)cc1` [Example 1-113, N-cyclopropyl-4-{6-[4-(dimethylamino)phenyl]-8-[(3,3,3-trifluoropropyl)amino]imidazo[1,2-a]pyrazin-3-yl}-2-fluoro-benzamide], the half-inhibitory concentration (IC50) was determined as 11.2 nM.

Turning to `CC(C)CNc1nc(-c2cccc(Cl)c2)cn2c(-c3ccc(C(=O)NC4CC4)cc3)cnc12` [Example 1-37, 4-{6-(3-chlorophenyl)-8-[(2-methylpropyl)amino]imidazo[1,2-a]pyrazin-3-yl}-N-cyclopropyl-benzamide], the IC50 is 15.2 nM.

Regarding `CC(=O)c1cccc(-c2cn3c(-c4ccc(C(=O)NC5CC5)cc4)cnc3c(NCC(C)C)n2)c1` [Example 1-46, 4-{6-(3-acetylphenyl)-8-[(2-methylpropyl)amino]imidazo[1,2-a]pyrazin-3-yl}-N-cyclo-propylbenzamide], the IC50 came to 2.3 nM.

As to `O=C(NC1CC1)c1ccc(-c2cnc3c(NCCCn4ccnc4)nc(-c4ccccc4)cn23)cc1` [Example 2-71, N-cyclopropyl-4-(8-{[3-(1H-imidazol-1-yl)propyl]amino}-6-phenylimidazo[1,2-a]pyrazin-3-yl)benzamide], the half-inhibitory concentration (IC50) amounted to 4.1 nM.

Turning to `COC(=O)CCNc1nc(-c2ccccc2)cn2c(-c3ccc(C(=O)NC4CC4)cc3)cnc12` [Example 2-33, methyl N-{3-[4-(cyclopropylcarbamoyl)phenyl]-6-phenylimidazo[1,2-a]pyrazin-8-yl}-beta-alaninate], the IC50 is 2.3 nM.

As for `CC(C)CNc1nc(-c2ccccc2)c(Cl)n2c(-c3ccc(C(=O)NC4CC4)cc3)cnc12` [Example 3-1, 4-{5-chloro-8-[(2-methylpropyl)amino]-6-phenylimidazo[1,2-a]pyrazin-3-yl}-N-cyclopropylbenzamide], the concentration for half-maximal inhibition (IC50) turned out to be 10.7 nM.

For the compound `CC(=O)c1ccc(-c2cn3c(-c4ccc(C(=O)NC5CC5)cc4)cnc3c(NCC(C)C)n2)cc1` [Example 1-48, 4-{6-(4-acetylphenyl)-8-[(2-methylpropyl)amino]imidazo[1,2-a]pyrazin-3-yl}-N-cyclopropyl-benzamide], the IC50 turned out to be 1.1 nM.

Turning to `CC(C)CNc1nc(-c2cc(Cl)cc(Cl)c2)cn2c(-c3ccc(C(=O)NC4CC4)cc3)cnc12` [Example 1-10, N-cyclopropyl-4-{6-(3,5-dichlorophenyl)-8-[(2-methylpropyl)amino]imidazo[1,2-a]pyrazin-3-yl}benzamide], the IC50 turned out to be 1110 nM.

`CC(=O)NCCNc1nc(-c2ccccc2)cn2c(-c3ccc(C(=O)NC4CC4)cc3)cnc12` [Example 2-19, 4-(8-{[2-(acetylamino)ethyl]amino}-6-phenylimidazo[1,2-a]pyrazin-3-yl)-N-cyclopropyl-benzamide]: the half-maximal inhibitory concentration (IC50) came out at 8.1 nM.

As to `Cc1cc(-c2cnc3c(NCCC(F)(F)F)nc(-c4ccccc4CO)cn23)ccc1C(=O)NC1CC1` [Example 1-138, N-cyclopropyl-4-{6-[2-(hydroxymethyl)phenyl]-8-[(3,3,3-trifluoro-propyl)amino]imidazo[1,2-a]pyrazin-3-yl}-2-methylbenzamide], the 50% inhibitory concentration (IC50) is 1.9 nM.

`O=C(NC1CC1)c1ccc(-c2cnc3c(NCCCOC[C@@H](O)CO)nc(-c4ccccc4)cn23)cc1` [Example 9-1, N-cyclopropyl-4-{8-[(3-{[(2S)-2,3-dihydroxypropyl]oxy}propyl)amino]-6-phenylimidazo[1,2-a]pyrazin-3-yl}benzamide]: the IC50 stood at 3.4 nM.

On to `Cc1cc(-c2cnc3c(NCC(C)(C)O)nc(-c4ccccc4)cn23)ccc1C(=O)NC1CC1` [Example 1-137, N-cyclopropyl-4-{8-[(2-hydroxy-2-methylpropyl)amino]-6-phenylimidazo[1,2-a]pyrazin-3-yl}-2-methylbenzamide], for which the IC50 came out at 5.1 nM.

`COCCNc1nc(-c2ccccc2)cn2c(-c3ccc(C(=O)NC4CC4)cc3)cnc12` [Example 2-12, N-cyclopropyl-4-{8-[(2-methoxyethyl)amino]-6-phenylimidazo[1,2-a]pyrazin-3-yl}benzamide]: the IC50 came to 1.7 nM.

On to `O=C(NC1CC1)c1ccc(-c2cnc3c(NCc4ccccc4)nc(-c4ccccc4)cn23)cc1` [Example 2-15, 4-[8-(benzylamino)-6-phenylimidazo[1,2-a]pyrazin-3-yl]-N-cyclopropyl-benzamide], for which the half-inhibitory concentration (IC50) was 3.8 nM.

As to `Cc1cc(-c2cnc3c(NCC4CCN(C)C4)nc(-c4ccc(F)cc4)cn23)ccc1C(=O)NC1CC1` (stereo not drawn) [Example 10-8, N-cyclopropyl-4-[6-(4-fluorophenyl)-8-{[(1-methylpyrrolidin-3-yl)methyl]amino}imidazo [1,2-a]pyrazin-3-yl]-2-methylbenzamide], the IC50 was found to be 119 nM.

For `CC(C)CNc1nc(-c2cccc(C(=O)N(C)C)c2)cn2c(-c3ccc(C(=O)NC4CC4)cc3)cnc12` [Example 1-27, 3-{3-[4-(cyclopropyl-carbamoyl)phenyl]-8-[(2-methylpropyl)amino]imidazo[1,2-a]pyrazin-6-yl}-N,N-dimethyl-benzamide], the IC50 was found to be 8.1 nM.

As to `Cc1cccc(-c2cn3c(-c4ccc(C(=O)NC5CC5)cc4)cnc3c(NCC(C)C)n2)c1C` [Example 1-9, N-cyclopropyl-4-{6-(2,3-dimethylphenyl)-8-[(2-methylpropyl)amino]imidazo[1,2-a]pyrazin-3-yl}benzamide], the concentration for half-maximal inhibition (IC50) was 2.4 nM.
